Data taken from the NIST ThermoML archive (doi:10.1016/j.jct.2004.12.014).
± gives the expanded uncertainty stated by the source.

Legend:
[1] = xn = mol fraction of the nth substance listed; conditions: 318.15 K, 101 kPa, Liquid
[2] = excess molar enthalpy (molar enthalpy of mixing); xn = mol fraction of the nth substance listed; conditions: 318.15 K, 101 kPa, Liquid

CCCCCOC(=O)CC [pentyl propanoate] + CCCCCCC
Conditions	excess molar enthalpy [kcal/mol]	excess molar volume [m3/mol]
[1], x1 = 0.0556	–	6.6e-08 ± 1.6e-08
[1], x1 = 0.1092	–	1.1e-07 ± 1.6e-08
[1], x1 = 0.182	–	1.41e-07 ± 1.6e-08
[1], x1 = 0.217	–	1.68e-07 ± 1.6e-08
[1], x1 = 0.2721	–	1.85e-07 ± 1.6e-08
[1], x1 = 0.3275	–	1.96e-07 ± 1.6e-08
[1], x1 = 0.3857	–	1.98e-07 ± 1.6e-08
[1], x1 = 0.4428	–	1.92e-07 ± 1.6e-08
[1], x1 = 0.5013	–	1.78e-07 ± 1.6e-08
[1], x1 = 0.5611	–	1.59e-07 ± 1.6e-08
[1], x1 = 0.6204	–	1.37e-07 ± 1.6e-08
[1], x1 = 0.6824	–	1.03e-07 ± 1.6e-08
[1], x1 = 0.742	–	7.7e-08 ± 1.6e-08
[1], x1 = 0.8047	–	4.9e-08 ± 1.6e-08
[1], x1 = 0.8674	–	2.9e-08 ± 1.6e-08
[1], x1 = 0.9323	–	9e-09 ± 1.6e-08
[2], x1 = 0.0541	0.0384 ± 0.001	–
[2], x1 = 0.1161	0.0728 ± 0.00151	–
[2], x1 = 0.1808	0.101 ± 0.00194	–
[2], x1 = 0.2438	0.123 ± 0.00227	–
[2], x1 = 0.3073	0.141 ± 0.00263	–
[2], x1 = 0.3672	0.152 ± 0.00263	–
[2], x1 = 0.4224	0.157 ± 0.00287	–
[2], x1 = 0.445	0.158 ± 0.00287	–
[2], x1 = 0.4906	0.159 ± 0.00287	–
[2], x1 = 0.5414	0.157 ± 0.00287	–
[2], x1 = 0.5976	0.149 ± 0.00263	–
[2], x1 = 0.6595	0.137 ± 0.00239	–
[2], x1 = 0.725	0.119 ± 0.00222	–
[2], x1 = 0.7935	0.0946 ± 0.00184	–
[2], x1 = 0.8667	0.0645 ± 0.00139	–
[2], x1 = 0.9349	0.0338 ± 0.000908	–

CCCCCOC(=O)CC [pentyl propanoate] + CCCCCCCCC
Conditions	excess molar enthalpy [kcal/mol]	excess molar volume [m3/mol]
[1], x1 = 0.0661	–	1.34e-07 ± 1.6e-08
[1], x1 = 0.1312	–	2.47e-07 ± 1.7e-08
[1], x1 = 0.1902	–	3.19e-07 ± 1.7e-08
[1], x1 = 0.2517	–	3.88e-07 ± 1.7e-08
[1], x1 = 0.3122	–	4.31e-07 ± 1.8e-08
[1], x1 = 0.3722	–	4.6e-07 ± 1.8e-08
[1], x1 = 0.4344	–	4.77e-07 ± 1.8e-08
[1], x1 = 0.4911	–	4.73e-07 ± 1.8e-08
[1], x1 = 0.5498	–	4.62e-07 ± 1.8e-08
[1], x1 = 0.6072	–	4.37e-07 ± 1.8e-08
[1], x1 = 0.6646	–	3.9e-07 ± 1.7e-08
[1], x1 = 0.7225	–	3.49e-07 ± 1.7e-08
[1], x1 = 0.778	–	2.91e-07 ± 1.7e-08
[1], x1 = 0.8335	–	2.41e-07 ± 1.7e-08
[1], x1 = 0.8887	–	1.69e-07 ± 1.6e-08
[1], x1 = 0.9434	–	1.01e-07 ± 1.6e-08
[2], x1 = 0.0584	0.0448 ± 0.0011	–
[2], x1 = 0.1266	0.0882 ± 0.00174	–
[2], x1 = 0.1948	0.124 ± 0.00229	–
[2], x1 = 0.2641	0.151 ± 0.00263	–
[2], x1 = 0.329	0.168 ± 0.00311	–
[2], x1 = 0.3907	0.178 ± 0.00311	–
[2], x1 = 0.4467	0.183 ± 0.00311	–
[2], x1 = 0.4973	0.184 ± 0.00311	–
[2], x1 = 0.5431	0.181 ± 0.00311	–
[2], x1 = 0.576	0.176 ± 0.00311	–
[2], x1 = 0.5969	0.173 ± 0.00311	–
[2], x1 = 0.6505	0.161 ± 0.00287	–
[2], x1 = 0.7085	0.145 ± 0.00263	–
[2], x1 = 0.7683	0.124 ± 0.00229	–
[2], x1 = 0.8297	0.0982 ± 0.00191	–
[2], x1 = 0.8907	0.067 ± 0.00143	–
[2], x1 = 0.9492	0.0339 ± 0.000932	–

CCCCCOC(=O)CC [pentyl propanoate] + CCCCCCCCCCC
Conditions	excess molar enthalpy [kcal/mol]	excess molar volume [m3/mol]
[1], x1 = 0.079	–	1.89e-07 ± 1.6e-08
[1], x1 = 0.1498	–	3.48e-07 ± 1.7e-08
[1], x1 = 0.2179	–	4.36e-07 ± 1.8e-08
[1], x1 = 0.2836	–	5.2e-07 ± 1.8e-08
[1], x1 = 0.3484	–	5.69e-07 ± 1.8e-08
[1], x1 = 0.4116	–	6.03e-07 ± 1.8e-08
[1], x1 = 0.4733	–	6.14e-07 ± 1.8e-08
[1], x1 = 0.5329	–	6.13e-07 ± 1.8e-08
[1], x1 = 0.5902	–	5.99e-07 ± 1.8e-08
[1], x1 = 0.6462	–	5.83e-07 ± 1.8e-08
[1], x1 = 0.7023	–	5.24e-07 ± 1.8e-08
[1], x1 = 0.7545	–	4.67e-07 ± 1.8e-08
[1], x1 = 0.8065	–	3.79e-07 ± 1.7e-08
[1], x1 = 0.8561	–	3.1e-07 ± 1.7e-08
[1], x1 = 0.9045	–	2.2e-07 ± 1.7e-08
[1], x1 = 0.9538	–	1.21e-07 ± 1.6e-08
[2], x1 = 0.0724	0.0592 ± 0.00131	–
[2], x1 = 0.153	0.109 ± 0.00208	–
[2], x1 = 0.229	0.148 ± 0.00263	–
[2], x1 = 0.3051	0.179 ± 0.00311	–
[2], x1 = 0.3748	0.197 ± 0.00335	–
[2], x1 = 0.4452	0.206 ± 0.00359	–
[2], x1 = 0.5015	0.206 ± 0.00359	–
[2], x1 = 0.5466	0.201 ± 0.00359	–
[2], x1 = 0.556	0.2 ± 0.00359	–
[2], x1 = 0.6046	0.192 ± 0.00335	–
[2], x1 = 0.6573	0.179 ± 0.00311	–
[2], x1 = 0.7137	0.161 ± 0.00287	–
[2], x1 = 0.7726	0.14 ± 0.00263	–
[2], x1 = 0.8314	0.112 ± 0.0021	–
[2], x1 = 0.8897	0.0786 ± 0.0016	–
[2], x1 = 0.9449	0.0436 ± 0.00108	–
